Results reported in patent US6548235B2, “Stabilized solution of an alkali metal or alkaline earth metal salt of p-phenylenediamine color developer and method of making same” (Eastman Chemical Company, priority 2000, dated 2003).

Key:
Assay type in all cases: physicochemical
[1] = Saturation solubility of CD-3 free base in solvents and solvent/water mixtures; details: 3% DEHA, ambient temperature
Method: The solubility of the free base form of color developers CD-3 in a number of potential solvents was determined. Representative solvents were selected from each of the different classes of solvents: alcohols, glycols and glycol ethers. A small quantity of a representative preservative, 3% of N,N-diethylhydroxylamine (DEHA), was added. Excess dry color developer free base (CD-3) was added to each solvent and saturation was achieved by mixing for several hours at room temperature. […] In Table I, Solvent:Water refers to the weight:weight, solvent:water ratio when water was included, CD Free Base Concentration refers to the weight percent saturation concentration of CD-3, and PEG 200 and PEG 300 refers to poly(ethylene glycol) having an average molecular weight of 200 or 300.

[2] = Saturation solubility of CD-3 free base in solvent/water/sodium hydroxide systems; details: 3 weight percent DEHA, ambient temperature, HPLC
Method: Because CD-3 free base can be converted to its metal salt by treatment with a sufficiently strong base such as an alkali metal or alkaline earth metal hydroxide, carbonate, alkoxide or hydride, the solubility of CD-3 free base in solvent systems in combination with water and base was measured to determine if enhanced solubility could be obtained. The saturation concentration in weight percent again was determined by the techniques of both HPLC and NMR. Selected solvents were combined with water and an alkali metal hydroxide (sodium hydroxide), with each sample containing a small quantity (3 weight percent) of a representative preservative (DEHA). Excess, dry CD-3 free base was added to each combination solvent system and saturation was achieved by mixing for several hours at ambient temperature.

[3] = Product solution of CD-3 free base sodium salt after solvent exchange, observed at ambient temperature; details: Example 53, nominally 23% in water after distilling 2-propanol, contains DEHA
Method: A 425 gram autoclave solution containing 23.2% CD-3 free base, 2.5% DEHA in 268 g of 2-propanol, and 47 g of water was added to a two-liter flask equipped with an overhead agitator, temperature probe, addition funnel, condenser with take-off provision, and nitrogen blanketing. Water (275 g) and 30 g of 50% aqueous sodium hydroxide were added to the flask. The mixture was distilled at a vapor temperature of approximately 85° C.

Compound: CCN(CCNS(C)(=O)=O)c1ccc(N)c(C)c1 [CD-3 free base, 4-amino-3-methyl-N-ethyl-N-(2-methanesulfonamidoethyl)aniline]
- CD Free Base Conc. (saturation concentration) ([1]; Example 1, 2-Isopropoxyethanol): 8.6 weight percent
- CD Free Base Conc. (saturation concentration) ([1]; Example 2, 2-Methyl-1,3-Propanediol): 3.3 weight percent
- CD Free Base Conc. (saturation concentration) ([1]; Example 3, 3-Methoxy-1-Butanol): 9.3 weight percent
- CD Free Base Conc. (saturation concentration) ([1]; Example 4, PEG-200): 16.9 weight percent
- CD Free Base Conc. (saturation concentration) ([1]; Example 5, PEG-300): 16.7 weight percent
- CD Free Base Conc. (saturation concentration) ([1]; Example 6, Diethylene Glycol): 15.2 weight percent
- CD Free Base Conc. (saturation concentration) ([1]; Example 7, Methanol): 23.6 weight percent
- CD Free Base Conc. (saturation concentration) ([1]; Example 8, Methanol/Water 90:10 w:w): 18.9 weight percent
- CD Free Base Conc. (saturation concentration) ([1]; Example 9, Methanol/Water 50:50 w:w): 6.8 weight percent
- CD Free Base Conc. (saturation concentration) ([1]; Example 10, Methanol/Water 10:90 w:w): 0.7 weight percent
- CD Free Base Conc. (saturation concentration) ([1]; Example 11, Ethanol): 5.4 weight percent
- CD Free Base Conc. (saturation concentration) ([1]; Example 12, Ethanol/Water 90:10 w:w): 9.7 weight percent
- CD Free Base Conc. (saturation concentration) ([1]; Example 13, Ethanol/Water 50:50 w:w): 9.0 weight percent
- CD Free Base Conc. (saturation concentration) ([1]; Example 14, Ethanol/Water 10:90 w:w): 0.6 weight percent
- CD Free Base Conc. (saturation concentration) ([1]; Example 15, 2-Propanol): 1.8 weight percent
- CD Free Base Conc. (saturation concentration) ([1]; Example 16, 2-Propanol/Water 90:10 w:w): 7.8 weight percent
- CD Free Base Conc. (saturation concentration) ([1]; Example 17, 2-Propanol/Water 50:50 w:w): 9.2 weight percent
- CD Free Base Conc. (saturation concentration) ([1]; Example 18, 2-Propanol/Water 10:90 w:w): 0.8 weight percent
- CD Free Base Conc. (saturation concentration) ([2]; Example 19, 2-Isopropoxyethanol/Water/NaOH 63:34:3 w): 22.9 weight percent
- CD Free Base Conc. (saturation concentration) ([2]; Example 20, 2-Methyl-1,3-Propanediol/Water/NaOH 63:34:3 w): 19.0 weight percent
- CD Free Base Conc. (saturation concentration) ([2]; Example 21, 3-Methoxy-1-Butanol/Water/NaOH 63:34:3 w): 21.3 weight percent
- CD Free Base Conc. (saturation concentration) ([2]; Example 22, PEG-200/Water/NaOH 63:34:3 w): 19.5 weight percent
- CD Free Base Conc. (saturation concentration) ([2]; Example 23, PEG-300/Water/NaOH 63:34:3 w): 19.2 weight percent
- CD Free Base Conc. (saturation concentration) ([2]; Example 24, Diethylene Glycol/Water/NaOH 63:34:3 w): 15.1 weight percent
- CD Free Base Conc. (saturation concentration) ([2]; Example 26, 2-Methyl-1,3-Propanediol/Water/NaOH 61:33:6 w): 23.2 weight percent
- CD Free Base Conc. (saturation concentration) ([2]; Example 27, 3-Methoxy-1-Butanol/Water/NaOH 61:33:6 w): 26.4 weight percent
- CD Free Base Conc. (saturation concentration) ([2]; Example 28, PEG-200/Water/NaOH 61:33:6 w): 23.5 weight percent
- CD Free Base Conc. (saturation concentration) ([2]; Example 29, PEG-300/Water/NaOH 61:33:6 w): 20.8 weight percent
- CD Free Base Conc. (saturation concentration) ([2]; Example 30, Diethylene Glycol/Water/NaOH 61:33:6 w): 21.9 weight percent
- CD Free Base Conc. (saturation concentration) ([2]; Example 31, Water/NaOH 93.5:6.5 w): 25.1 weight percent
- CD Free Base Conc. (saturation concentration) ([2]; Example printed 24 (second), 2-Isopropoxyethanol/Water/NaOH 61:33:6 w): 21.9 weight percent

Compound: CCN(CC[N-]S(C)(=O)=O)c1ccc(N)c(C)c1.[Na+] [CD-3 free base sodium salt]
- Solution behaviour of final product solution [3]: remained in solution
